Columns and labels:
late watergrass [1] = assay: Test Example 1: herbicidal activity, application before weed generation under submerged conditions (Table 16, symbol A); assay type: in vivo, late watergrass (Echinochloa oryzicola)
Method in brief: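 Alluvial soil was flooded to 4 cm depth, weed seeds were sown mixed and 2.5-leaf rice seedlings were transplanted. On sowing day, the compound's emulsion, diluted in water to a set dose, was applied to the water surface. Plants grew at 25–30 °C and were scored 0–5 after three weeks.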

late watergrass [2] = assay: Test Example 2: herbicidal activity, application during weed generation under submerged conditions (Table 17, symbol A); assay type: in vivo, late watergrass (Echinochloa oryzicola); details: for herbicidal effect grade, A: late watergrass: application during weed generation under submerged conditions
Method in brief: (§1)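 3-wk visual-criteria score after one water-surface dose. Emulsion formulation, water-diluted to set rate; applied at 1–2 leaf stage; alluvial soil, 4 cm standing water; seeds co-sown; greenhouse 25–30° C.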

oval-leafed pondweed = assay: Test Example 2: herbicidal activity, application during weed generation under submerged conditions (Table 17, symbol C); assay type: in vivo, oval-leafed pondweed (Monochoria vaginalis); details: for herbicidal effect grade, C: oval-leafed pondweed: application during weed generation under submerged conditions
Method in brief: as §1

barnyard grass [3] = assay: Test Example 3: herbicidal effect by foliage application, Wagner pot (Table 18, symbol H); assay type: in vivo, barnyard grass (Echinochloa crus-galli)
Method in brief: (§2)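 Plants were sown in alluvial soil held under 0.1–0.5 cm standing water and grown 14 days in a greenhouse at 25–30 °C. An emulsifiable formulation, water-diluted to the set dose, was then sprayed onto the foliage, and effects were scored three weeks later using previously defined criteria.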

Chinese sprangletop = assay: Test Example 3: herbicidal effect by foliage application, Wagner pot (Table 18, symbol D); assay type: in vivo, chinese sprangletop (Leptochloa chinensis)
Method in brief: as §2

green foxtail [4] = assay: Test Example 4: herbicidal effect by soil treatment (Table 19, symbol G); assay type: in vivo, green foxtail (Setaria viridis)
Method in brief: (§3)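 Scoring uses the grading scale of an earlier test, three weeks post-application. Treatment consists of spraying a diluted emulsion formulation across the surface of sterilized diluvial soil in which seeds are buried near 1.5 cm deep; boxes are kept in a greenhouse between 25° C. and 30° C.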

windgrass [5] = assay: Test Example 4: herbicidal effect by soil treatment (Table 19, symbol L); assay type: in vivo, windgrass (Apera spica-venti)
Method in brief: as §3

velvetleaf [6] = assay: Test Example 4: herbicidal effect by soil treatment (Table 19, symbol M); assay type: in vivo, velvetleaf (Abutilon theophrasti)
Method in brief: as §3

redroot pigweed [7] = assay: Test Example 4: herbicidal effect by soil treatment (Table 19, symbol N); assay type: in vivo, redroot pigweed (Amaranthus retroflexus)
Method in brief: as §3

false cleavers = assay: Test Example 4: herbicidal effect by soil treatment (Table 19, symbol Q); assay type: in vivo, false cleavers (Galium spurium)
Method in brief: as §3

green foxtail [8] = assay: Test Example 5: herbicidal effect by foliage application, plastic box (Table 20, symbol G); assay type: in vivo, green foxtail (Setaria viridis); details: foliage application, evaluated 3 weeks after application
Method in brief: (§4)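 Post-emergence foliar test in sterilized diluvial soil. Compound applied as water-diluted emulsion at a predetermined rate to 14-day-old plants; evaluation at three weeks.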

barnyard grass [9] = assay: Test Example 5: herbicidal effect by foliage application, plastic box (Table 20, symbol H); assay type: in vivo, barnyard grass (Echinochloa crus-galli); details: foliage application, evaluated 3 weeks after application
Method in brief: as §4

wild oat = assay: Test Example 5: herbicidal effect by foliage application, plastic box (Table 20, symbol I); assay type: in vivo, wild oat (Avena fatua); details: foliage application, evaluated 3 weeks after application
Method in brief: as §4

windgrass [10] = assay: Test Example 5: herbicidal effect by foliage application, plastic box (Table 20, symbol L); assay type: in vivo, windgrass (Apera spica-venti); details: foliage application, evaluated 3 weeks after application
Method in brief: as §4

velvetleaf [11] = assay: Test Example 5: herbicidal effect by foliage application, plastic box (Table 20, symbol M); assay type: in vivo, velvetleaf (Abutilon theophrasti); details: foliage application, evaluated 3 weeks after application
Method in brief: as §4

redroot pigweed [12] = assay: Test Example 5: herbicidal effect by foliage application, plastic box (Table 20, symbol N); assay type: in vivo, redroot pigweed (Amaranthus retroflexus); details: foliage application, evaluated 3 weeks after application
Method in brief: as §4

lambsquarters = assay: Test Example 5: herbicidal effect by foliage application, plastic box (Table 20, symbol O); assay type: in vivo, lambsquarters (Chenopodium album); details: foliage application, evaluated 3 weeks after application
Method in brief: as §4

[13] = amount of applied herbicide 320 g/ha
[14] = AAH 320 g/ha, application during weed generation, submerged conditions
[15] = amount of applied herbicide 402 g/ha

Compound | Herbicidal effect, A: late watergrass (late watergrass [1]; [13]) | Herbicidal effect on H (barnyard grass), foliage application (barnyard grass [3]; [13]) | Herbicidal effect on D (Chinese sprangletop), foliage application (Chinese sprangletop; [13]) | G: green foxtail, herbicidal effect grade (green foxtail [4]; [13]) | L: windgrass, herbicidal effect grade (windgrass [5]; [13]) | M: velvetleaf, herbicidal effect grade (velvetleaf [6]; [13]) | N: redroot pigweed, herbicidal effect grade (redroot pigweed [7]; [13]) | Q: false cleavers, herbicidal effect grade (false cleavers; [13]) | G (green foxtail) herbicidal effect grade (green foxtail [8]; 320 g/ha) | H (barnyard grass) herbicidal effect grade (barnyard grass [9]; 320 g/ha) | I (wild oat) herbicidal effect grade (wild oat; 320 g/ha) | L (windgrass) herbicidal effect grade (windgrass [10]; 320 g/ha) | M (velvetleaf) herbicidal effect grade (velvetleaf [11]; 320 g/ha) | N (redroot pigweed) herbicidal effect grade (redroot pigweed [12]; 320 g/ha) | O (lambsquarters) herbicidal effect grade (lambsquarters; 320 g/ha) | herbicidal effect grade, A: late watergrass (late watergrass [2]; [13]) | herbicidal effect grade, C: oval-leafed pondweed (oval-leafed pondweed; [13]) | other results
CCCOc1ccc(-c2oc3ccc(C)cc3c2-c2c(O)c(C)nn(C)c2=O)cc1 [9-049] | 5 (Herbicidal rate of 90% or more (almost completely withered)) | 5 (Herbicidal rate of 90% or more (almost completely withered)) | 2 (Herbicidal rate of 20% or more and less than 40%) | 4 (Herbicidal rate of 70% or more and less than 90%) | 0 (Herbicidal rate of 5% or less (almost no effect)) | 3 (Herbicidal rate of 40% or more and less than 70%) | 5 (Herbicidal rate of 90% or more (almost completely withered)) | 0 (Herbicidal rate of 5% or less (almost no effect)) | 5 (Herbicidal rate of 90% or more (almost completely withered)) | 5 (Herbicidal rate of 90% or more (almost completely withered)) | 0 (Herbicidal rate of 5% or less (almost no effect)) | 0 (Herbicidal rate of 5% or less (almost no effect)) | 5 (Herbicidal rate of 90% or more (almost completely withered)) | 5 (Herbicidal rate of 90% or more (almost completely withered)) | 5 (Herbicidal rate of 90% or more (almost completely withered)) |  |  | herbicidal effect rating, A: late watergrass (late watergrass [2]; [14]): 5 (Herbicidal rate of 90% or more (almost completely withered)); herbicidal effect rating, C: oval-leafed pondweed (oval-leafed pondweed; [14]): 4 (Herbicidal rate of 70% or more and less than 90%)
CCCC(=O)Oc1c(C)nn(C)c(=O)c1-c1c(-c2ccc(SCC)cc2)oc2ccc(C)cc12 [9-058] | 5 (Herbicidal rate of 90% or more (almost completely withered)) | 5 (Herbicidal rate of 90% or more (almost completely withered)) | 3 (Herbicidal rate of 40% or more and less than 70%) | 5 (Herbicidal rate of 90% or more (almost completely withered)) | 0 (Herbicidal rate of 5% or less (almost no effect)) | 3 (Herbicidal rate of 40% or more and less than 70%) | 5 (Herbicidal rate of 90% or more (almost completely withered)) | 0 (Herbicidal rate of 5% or less (almost no effect)) | 5 (Herbicidal rate of 90% or more (almost completely withered)) | 4 (Herbicidal rate of 70% or more and less than 90%) | 2 (Herbicidal rate of 20% or more and less than 40%) | 0 (Herbicidal rate of 5% or less (almost no effect)) | 5 (Herbicidal rate of 90% or more (almost completely withered)) | 5 (Herbicidal rate of 90% or more (almost completely withered)) | 5 (Herbicidal rate of 90% or more (almost completely withered)) | 4 (Herbicidal rate of 70% or more and less than 90%) | 4 (Herbicidal rate of 70% or more and less than 90%) | 
CCCC(=O)Oc1c(C)nn(C)c(=O)c1-c1c(-c2ccc(SC(C)C)cc2)oc2ccc(C)cc12 [9-060] |  |  |  |  |  |  |  |  |  |  |  |  |  |  |  |  |  | Herbicidal effect, A: late watergrass (late watergrass [1]; [15]): 5 (Herbicidal rate of 90% or more (almost completely withered)); herbicidal effect grade, A: late watergrass (late watergrass [2]; [15]): 4 (Herbicidal rate of 70% or more and less than 90%); herbicidal effect grade, C: oval-leafed pondweed (oval-leafed pondweed; [15]): 4 (Herbicidal rate of 70% or more and less than 90%); Herbicidal effect on H (barnyard grass), foliage application (barnyard grass [3]; [15]): 4 (Herbicidal rate of 70% or more and less than 90%); Herbicidal effect on D (Chinese sprangletop), foliage application (Chinese sprangletop; [15]): 2 (Herbicidal rate of 20% or more and less than 40%); G: green foxtail, herbicidal effect grade (green foxtail [4]; [15]): 3 (Herbicidal rate of 40% or more and less than 70%); L: windgrass, herbicidal effect grade (windgrass [5]; [15]): 0 (Herbicidal rate of 5% or less (almost no effect)); M: velvetleaf, herbicidal effect grade (velvetleaf [6]; [15]): 3 (Herbicidal rate of 40% or more and less than 70%); N: redroot pigweed, herbicidal effect grade (redroot pigweed [7]; [15]): 5 (Herbicidal rate of 90% or more (almost completely withered)); Q: false cleavers, herbicidal effect grade (false cleavers; [15]): 0 (Herbicidal rate of 5% or less (almost no effect)); G (green foxtail) herbicidal effect grade (green foxtail [8]; 402 g/ha): 5 (Herbicidal rate of 90% or more (almost completely withered)); H (barnyard grass) herbicidal effect grade (barnyard grass [9]; 402 g/ha): 3 (Herbicidal rate of 40% or more and less than 70%); I (wild oat) herbicidal effect grade (wild oat; 402 g/ha): 3 (Herbicidal rate of 40% or more and less than 70%); L (windgrass) herbicidal effect grade (windgrass [10]; 402 g/ha): 0 (Herbicidal rate of 5% or less (almost no effect)); M (velvetleaf) herbicidal effect grade (velvetleaf [11]; 402 g/ha): 5 (Herbicidal rate of 90% or more (almost completely withered)); N (redroot pigweed) herbicidal effect grade (redroot pigweed [12]; 402 g/ha): 5 (Herbicidal rate of 90% or more (almost completely withered)); O (lambsquarters) herbicidal effect grade (lambsquarters; 402 g/ha): 5 (Herbicidal rate of 90% or more (almost completely withered))
CCCC(=O)Oc1c(C)nn(C)c(=O)c1-c1c(-c2ccc(COC)cc2)oc2ccc(C)cc12 [9-062] | 5 (Herbicidal rate of 90% or more (almost completely withered)) | 5 (Herbicidal rate of 90% or more (almost completely withered)) | 3 (Herbicidal rate of 40% or more and less than 70%) | 5 (Herbicidal rate of 90% or more (almost completely withered)) | 0 (Herbicidal rate of 5% or less (almost no effect)) | 5 (Herbicidal rate of 90% or more (almost completely withered)) | 5 (Herbicidal rate of 90% or more (almost completely withered)) | 0 (Herbicidal rate of 5% or less (almost no effect)) | 5 (Herbicidal rate of 90% or more (almost completely withered)) | 4 (Herbicidal rate of 70% or more and less than 90%) | 0 (Herbicidal rate of 5% or less (almost no effect)) | 0 (Herbicidal rate of 5% or less (almost no effect)) | 5 (Herbicidal rate of 90% or more (almost completely withered)) | 5 (Herbicidal rate of 90% or more (almost completely withered)) | 5 (Herbicidal rate of 90% or more (almost completely withered)) | 3 (Herbicidal rate of 40% or more and less than 70%) | 3 (Herbicidal rate of 40% or more and less than 70%) | 
